From PMC3914206

Columns and labels:
Format in all cases: binding
Design in all cases: KINOMEscan: ABL1(F317L)-phosphorylated / KINOMEscan: ABL1(H396P)-nonphosphorylated / KINOMEscan: ABL1(H396P)-phosphorylated / KINOMEscan: ABL1(M351T)-phosphorylated / KINOMEscan: ABL1(T315I)-phosphorylated / KINOMEscan: ABL1-nonphosphorylated / KINOMEscan: ABL1-phosphorylated / KINOMEscan: ACVR2A / KINOMEscan: ACVR2B / KINOMEscan: ADCK3 / KINOMEscan: ADCK4 / KINOMEscan: AKT1 / KINOMEscan: AKT3 / KINOMEscan: ALK / KINOMEscan: ARK5 / KINOMEscan: AURKA / KINOMEscan: AURKC / KINOMEscan: BIKE / KINOMEscan: BMPR1A / KINOMEscan: BMPR1B / KINOMEscan: BMX / KINOMEscan: BRK / KINOMEscan: BRSK1 / KINOMEscan: BRSK2 / KINOMEscan: CAMK1 / KINOMEscan: CAMK1D / KINOMEscan: CAMK1G / KINOMEscan: CAMK2A / KINOMEscan: CAMK2B / KINOMEscan: AAK1 / KINOMEscan: CAMK2D / KINOMEscan: CAMK2G / KINOMEscan: ABL1(F317I)-nonphosphorylated / KINOMEscan: ABL1(F317I)-phosphorylated / KINOMEscan: ABL1(F317L)-nonphosphorylated: unit: % Ctrl
panel of 442 kinases [1] = biological target: T1, panel of 442 kinases (Homo sapiens, UniProt Q08881); settings: Compound Concentration 10 µM
T1 construct: purchased KINOMEscan
T1 sequence (Q08881 1-620): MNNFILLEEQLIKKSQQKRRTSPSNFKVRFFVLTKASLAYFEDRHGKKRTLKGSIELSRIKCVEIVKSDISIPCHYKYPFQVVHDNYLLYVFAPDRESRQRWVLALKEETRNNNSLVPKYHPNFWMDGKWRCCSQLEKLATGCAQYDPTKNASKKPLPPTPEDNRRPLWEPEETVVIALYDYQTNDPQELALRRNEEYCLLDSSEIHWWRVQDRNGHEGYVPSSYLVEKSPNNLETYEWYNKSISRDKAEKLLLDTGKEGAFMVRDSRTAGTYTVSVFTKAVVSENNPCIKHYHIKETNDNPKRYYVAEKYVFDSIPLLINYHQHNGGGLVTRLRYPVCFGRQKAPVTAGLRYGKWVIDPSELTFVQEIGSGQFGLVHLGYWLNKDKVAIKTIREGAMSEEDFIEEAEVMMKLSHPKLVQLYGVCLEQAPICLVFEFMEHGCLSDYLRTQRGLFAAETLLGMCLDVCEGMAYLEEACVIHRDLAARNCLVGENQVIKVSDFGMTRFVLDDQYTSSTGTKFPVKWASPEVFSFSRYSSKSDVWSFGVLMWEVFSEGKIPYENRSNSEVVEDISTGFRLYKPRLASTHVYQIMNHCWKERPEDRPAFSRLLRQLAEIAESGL
Text: (§1) We assessed the selectivity of members of this scaffold using the KINOMEscan methodology across a near comprehensive panel of 442 kinases [[18,27]].

panel of 442 kinases [2] = biological target: T2, panel of 442 kinases (Homo sapiens, UniProt Q9UQM7); settings: Compound Concentration 10 µM
T2 construct: purchased KINOMEscan
T2 sequence (Q9UQM7 whole entry): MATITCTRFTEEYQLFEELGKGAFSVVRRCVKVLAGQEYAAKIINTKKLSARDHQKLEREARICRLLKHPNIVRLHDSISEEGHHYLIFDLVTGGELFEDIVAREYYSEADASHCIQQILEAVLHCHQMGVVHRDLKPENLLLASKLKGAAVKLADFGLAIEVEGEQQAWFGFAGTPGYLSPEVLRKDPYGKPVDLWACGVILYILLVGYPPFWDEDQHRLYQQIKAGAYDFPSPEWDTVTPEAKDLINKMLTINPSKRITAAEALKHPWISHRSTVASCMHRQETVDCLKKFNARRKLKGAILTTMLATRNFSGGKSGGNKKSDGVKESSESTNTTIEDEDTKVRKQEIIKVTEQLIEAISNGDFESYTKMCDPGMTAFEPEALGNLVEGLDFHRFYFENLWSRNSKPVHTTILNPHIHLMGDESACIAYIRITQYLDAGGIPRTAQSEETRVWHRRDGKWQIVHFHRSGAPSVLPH
Text: as §1

panel of 442 kinases [3] = biological target: T3, panel of 442 kinases (Homo sapiens, UniProt P23443); settings: kinase S6K1; compound concentration 10 µM
T3 construct: purchased KINOMEscan
T3 sequence (P23443 whole entry): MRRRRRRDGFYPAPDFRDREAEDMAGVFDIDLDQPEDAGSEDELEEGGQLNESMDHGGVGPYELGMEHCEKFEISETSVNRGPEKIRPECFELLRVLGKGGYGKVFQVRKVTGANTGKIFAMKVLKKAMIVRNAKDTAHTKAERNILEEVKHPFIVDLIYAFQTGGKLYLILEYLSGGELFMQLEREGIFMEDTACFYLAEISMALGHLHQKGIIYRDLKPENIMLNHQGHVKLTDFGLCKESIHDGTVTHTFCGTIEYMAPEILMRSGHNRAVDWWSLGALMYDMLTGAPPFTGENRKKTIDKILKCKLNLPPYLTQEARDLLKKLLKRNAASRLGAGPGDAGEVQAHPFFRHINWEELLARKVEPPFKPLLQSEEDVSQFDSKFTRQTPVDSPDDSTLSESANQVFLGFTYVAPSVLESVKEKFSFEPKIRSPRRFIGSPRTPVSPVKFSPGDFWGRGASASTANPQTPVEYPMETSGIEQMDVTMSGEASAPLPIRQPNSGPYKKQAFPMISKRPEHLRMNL
Text: as §1

Row | Compound | KINOMEscan: ITK (panel of 442 kinases [1]) | KINOMEscan: CAMK2A (panel of 442 kinases [2]) | % Ctrl, S6K1 (panel of 442 kinases [3]) [% Ctrl]
1 | CCOc1cc(C(=O)N2CCC(N3CCN(C)CC3)CC2)ccc1Nc1ncc2c(n1)N(C1CCCC1)c1ccccc1C(=O)N2C [Compound 26] | 100 | 100 | 100
2 | COc1cc(C(=O)N2CCC(N3CCN(C)CC3)CC2)ccc1Nc1ncc2c(n1)N(C1CCCC1)c1ccccc1C(=O)N2C [Compound 25, 11-cyclopentyl-2-((2-methoxy-4-(4-(4-methylpiperazin-1-yl)piperidine-1-carbonyl)phenyl)amino)-5-methyl-5H-benzo[e]pyrimido[5,4-b][1,4]diazepin-6(11H)-one] | 100 | 81 | 100
3 | COc1cc(C(=O)N2CCC(N3CCN(C)CC3)CC2)ccc1Nc1ncc2c(n1)N1CCc3cccc(c31)C(=O)N2C [Compound 24] |  | 44 | 100
4 | COc1cc(C(=O)N2CCC(N3CCN(C)CC3)CC2)ccc1Nc1ncc2c(n1)N(C)c1ccccc1C(=O)N2C [15 (LRRK2-IN-1)] | 82 | 21 | 100
